Experimental data reported in US8192962B2, “Processes for detecting toxic substances” (Daikin Industries, Ltd., priority 2001, dated 2012).

Tested on: Stress protein genes
Experiment: DNA chip mRNA expression in yeast, stress protein genes (Table 6)
Assay type: cell-based, Saccharomyces cerevisiae S288C
Procedure, shortened: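 S. cerevisiae S288C grown at 25° C in YPD were exposed in log phase for two hours to one toxic chemical at a growth-inhibiting, non-lethal concentration; untreated cells served as control. Poly(A) mRNA was reverse-transcribed with Cy3/Cy5-dUTP and hybridized to a whole-genome yeast DNA chip at 65° C for over 12 hours; values are fluorescence ratios versus untreated.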

Cl[C@H]1[C@H](Cl)[C@@H](Cl)[C@@H](Cl)[C@H](Cl)[C@H]1Cl [(7), γ-hexachlorocyclohexane]
The level of expressed mRNA in the presence of chemical substance/The level of expressed mRNA in the absence of chemical substance (yeast gene YIL033C): 1.1
The level of expressed mRNA in the presence of chemical substance/The level of expressed mRNA in the absence of chemical substance (yeast gene YIR037W): 1.8
The level of expressed mRNA in the presence of chemical substance/The level of expressed mRNA in the absence of chemical substance (yeast gene YIR038C): 2.0
The level of expressed mRNA in the presence of chemical substance/The level of expressed mRNA in the absence of chemical substance (yeast gene YJL128C): 1.8
The level of expressed mRNA in the presence of chemical substance/The level of expressed mRNA in the absence of chemical substance (yeast gene YJL158C): 0.4
The level of expressed mRNA in the presence of chemical substance/The level of expressed mRNA in the absence of chemical substance (yeast gene YJL159W): 0.9
The level of expressed mRNA in the presence of chemical substance/The level of expressed mRNA in the absence of chemical substance (yeast gene YJL165C): 0.8
The level of expressed mRNA in the presence of chemical substance/The level of expressed mRNA in the absence of chemical substance (yeast gene YJR045C): 1.0
The level of expressed mRNA in the presence of chemical substance/The level of expressed mRNA in the absence of chemical substance (yeast gene YJR090C): 0.8
The level of expressed mRNA in the presence of chemical substance/The level of expressed mRNA in the absence of chemical substance (yeast gene YKL161C): 2.0
The level of expressed mRNA in the presence of chemical substance/The level of expressed mRNA in the absence of chemical substance (yeast gene YKL163W): 0.9
The level of expressed mRNA in the presence of chemical substance/The level of expressed mRNA in the absence of chemical substance (yeast gene YKL164C): 0.8
The level of expressed mRNA in the presence of chemical substance/The level of expressed mRNA in the absence of chemical substance (yeast gene YKL210W): 1.0
The level of expressed mRNA in the presence of chemical substance/The level of expressed mRNA in the absence of chemical substance (yeast gene YKR053C): 1.7
The level of expressed mRNA in the presence of chemical substance/The level of expressed mRNA in the absence of chemical substance (yeast gene YLL024C): 1.1
The level of expressed mRNA in the presence of chemical substance/The level of expressed mRNA in the absence of chemical substance (yeast gene YLL026W): 2.9
The level of expressed mRNA in the presence of chemical substance/The level of expressed mRNA in the absence of chemical substance (yeast gene YLL039C): 1.1
The level of expressed mRNA in the presence of chemical substance/The level of expressed mRNA in the absence of chemical substance (yeast gene YLL060C): 2.0
The level of expressed mRNA in the presence of chemical substance/The level of expressed mRNA in the absence of chemical substance (yeast gene YLR006C): 1.1
The level of expressed mRNA in the presence of chemical substance/The level of expressed mRNA in the absence of chemical substance (yeast gene YLR109W): 2.6
The level of expressed mRNA in the presence of chemical substance/The level of expressed mRNA in the absence of chemical substance (yeast gene YLR259C): 1.8
The level of expressed mRNA in the presence of chemical substance/The level of expressed mRNA in the absence of chemical substance (yeast gene YML007W): 1.1
The level of expressed mRNA in the presence of chemical substance/The level of expressed mRNA in the absence of chemical substance (yeast gene YML070W): 3.1
The level of expressed mRNA in the presence of chemical substance/The level of expressed mRNA in the absence of chemical substance (yeast gene YMR021C): 2.5
The level of expressed mRNA in the presence of chemical substance/The level of expressed mRNA in the absence of chemical substance (yeast gene YMR173W): 2.4
The level of expressed mRNA in the presence of chemical substance/The level of expressed mRNA in the absence of chemical substance (yeast gene YMR186W): 1.2
The level of expressed mRNA in the presence of chemical substance/The level of expressed mRNA in the absence of chemical substance (yeast gene YNL064C): 0.6
The level of expressed mRNA in the presence of chemical substance/The level of expressed mRNA in the absence of chemical substance (yeast gene YNL160W): 2.4
The level of expressed mRNA in the presence of chemical substance/The level of expressed mRNA in the absence of chemical substance (yeast gene YNL241C): 3.2
The level of expressed mRNA in the presence of chemical substance/The level of expressed mRNA in the absence of chemical substance (yeast gene YNR076W): 1.2
The level of expressed mRNA in the presence of chemical substance/The level of expressed mRNA in the absence of chemical substance (yeast gene YOL064C): 1.2
The level of expressed mRNA in the presence of chemical substance/The level of expressed mRNA in the absence of chemical substance (yeast gene YOL161C): 0.9
The level of expressed mRNA in the presence of chemical substance/The level of expressed mRNA in the absence of chemical substance (yeast gene YOR008C): 0.8
The level of expressed mRNA in the presence of chemical substance/The level of expressed mRNA in the absence of chemical substance (yeast gene YOR009W): 0.6
The level of expressed mRNA in the presence of chemical substance/The level of expressed mRNA in the absence of chemical substance (yeast gene YOR010C): 0.4
The level of expressed mRNA in the presence of chemical substance/The level of expressed mRNA in the absence of chemical substance (yeast gene YOR027W): 1.3
The level of expressed mRNA in the presence of chemical substance/The level of expressed mRNA in the absence of chemical substance (yeast gene YOR208W): 1.1
The level of expressed mRNA in the presence of chemical substance/The level of expressed mRNA in the absence of chemical substance (yeast gene YPL059W): 0.7
The level of expressed mRNA in the presence of chemical substance/The level of expressed mRNA in the absence of chemical substance (yeast gene YPL106C): 1.1
The level of expressed mRNA in the presence of chemical substance/The level of expressed mRNA in the absence of chemical substance (yeast gene YPL140C): 1.4
The level of expressed mRNA in the presence of chemical substance/The level of expressed mRNA in the absence of chemical substance (yeast gene YPL194W): 1.5
The level of expressed mRNA in the presence of chemical substance/The level of expressed mRNA in the absence of chemical substance (yeast gene YPL223C): 1.1
The level of expressed mRNA in the presence of chemical substance/The level of expressed mRNA in the absence of chemical substance (yeast gene YPL240C): 1.4
The level of expressed mRNA in the presence of chemical substance/The level of expressed mRNA in the absence of chemical substance (yeast gene YPR005C): 1.2
The level of expressed mRNA in the presence of chemical substance/The level of expressed mRNA in the absence of chemical substance (yeast gene YPR026W): 1.3
